In patent US20240425500A1 (priority 2021, published 2024):

Assays:
[1] = tested on: Phytophthora infestans; experiment: whole plant or invertebrate; format: in vivo; details: in Solanum lycopersicum, foliar, read-out: control of Phytophthora infestans compared to untreated control
[2] = tested on: Plasmopara viticola; experiment: whole plant or invertebrate; format: in vivo; details: foliar, read-out: control of Plasmopara viticola compared to untreated control
[3] = tested on: Pythium ultimum; experiment: Pythium ultimum / liquid culture (seedling damping off); format: cell-based; details: Globisporangium ultimum, liquid culture in PDB, 24 °C, 2-3 days after application, read-out: control of Pythium ultimum (inhibition of growth, photometric) compared to untreated control
Procedure, shortened: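 Mycelia fragments and oospores from fresh liquid culture mixed into potato dextrose broth and added to compound in DMSO. Incubated at 24° C.; growth inhibition read photometrically 2–3 days after application.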

COC(=O)Nc1ccc(-c2cnc3c(C)cc(C(=O)N(C)c4ccc(F)c(Cl)c4)cn23)cn1 [Compound 171, methyl N-[5-[6-[(3-chloro-4-fluoro-phenyl)-methyl-carbamoyl]-8-methyl-imidazo[1,2-a]pyridin-3-yl]-2-pyridyl]carbamate]
≥ 80%: pest or weed control at 200 ppm [1] | pest or weed control at 200 ppm [2] | inhibition at 20 ppm [3]

COCc1cc(C(=O)N(C)c2ccc(F)cc2)cn2c(-c3ccc(NC(=O)OC)nc3)cnc12 [Compound 172, methyl N-[5-[6-[(4-fluorophenyl)-methyl-carbamoyl]-8-(methoxymethyl)imidazo[1,2-a]pyridin-3-yl]-2-pyridyl]carbamate]
≥ 80%: pest or weed control at 200 ppm [1] | pest or weed control at 200 ppm [2] | inhibition at 20 ppm [3]

COCCN(C(=O)c1ccc2ncc(-c3ccc(NC(=O)OC)nc3)n2c1)c1ccc(F)c(OC)c1 [Compound 173, methyl N-[5-[6-[(4-fluoro-3-methoxy-phenyl)-(2-methoxyethyl)carbamoyl]imidazo[1,2-a]pyridin-3-yl]-2-pyridyl]carbamate]
≥ 80%: pest or weed control at 200 ppm [1] | pest or weed control at 200 ppm [2] | inhibition at 20 ppm [3]

COC(=O)Nc1ccc(-c2cnc3c(C)cc(C(=O)N(C)c4ccc(F)c(F)c4)cn23)cn1 [Compound 174, methyl N-[5-[6-[(3,4-difluorophenyl)-methyl-carbamoyl]-8-methyl-imidazo[1,2-a]pyridin-3-yl]-2-pyridyl]carbamate]
≥ 80%: pest or weed control at 200 ppm [1] | pest or weed control at 200 ppm [2] | inhibition at 20 ppm [3]

CCN(C(=O)c1ccc2ncc(-c3ccc(NC(=O)OC)nc3)n2c1)c1ccc(F)c(OC)c1 [Compound 178, methyl N-[5-[6-[ethyl-(4-fluoro-3-methoxy-phenyl)carbamoyl]imidazo [1,2-a]pyridin-3-yl]-2-pyridyl]carbamate]
≥ 80%: pest or weed control at 200 ppm [1] | pest or weed control at 200 ppm [2] | inhibition at 20 ppm [3]
